Test results reported in patent publication US6673786B1, “Tryptase inhibitors” (Altana Pharma AG, priority 1999, dated 2004).
Structures can show the parent of a compound that is named as a salt.

These compounds were tested against human tryptase (assay: Inhibition of human tryptase (apparent dissociation constant, chromogenic substrate tos-Gly-Pro-arg-pNA)). Settings: apparent dissociation constant in presence of substrate; heparin 0.1-50 μg/ml; equilibrium conditions; read-out: Klapp.
Assay type: biochemical
Description: The documented pathophysiological effects of mast cell tryptase are caused directly by the enzymatic activity of the protease. Accordingly, they are reduced or blocked by inhibitors which inhibit the enzymatic activity of the tryptase. A suitable measure for the affinity of a reversible inhibitor to the target protease is the equilibrium dissociation constant Ki of the enzyme-inhibitor complex. This Ki value can be determined via the effect of the inhibitor on the tryptase-induced cleavage of a chromogenic peptide-p-nitroanilide substrate or a fluorogenic peptide-aminomethylcoumarin substrate.
The dissociation constants for the tryptase-inhibitor complexes are determined under equilibrium conditions in accordance with the general proposals of Bieth (Bieth J G, Pathophysiological Interpretation of kinetic constants of protease inhibitors, Bull. Europ. Physiopath. Resp. 16:183-195, 1980) and the methods of Sommerhoff et al. (Sommerhoff C P et al., A Kazal-type inhibitor of human mast cell tryptase: Isolation from the medical leech Hirudo medicinalis, characterization, and sequence analysis, Biol. Chem. Hoppe-Seyler 375: 685-694, 1994).
Human tryptase is isolated from lung tissue or prepared recombinantly; the specific activity of the protease, determined by titration, is usually greater than 85% of the theoretical value. In the presence of heparin (0.1-50 μg/ml) for stabilizing the protease, constant amounts of the tryptase are incubated with increasing amounts of the inhibitors. After an equilibrium between the reaction partners has formed, the remaining enzyme activity after addition of the peptide-p-nitroanilide substrate tos-Gly-Pro-arg-pNA is determined and the cleavage of the latter is monitored at 405 nm for 3 min. Alternatively, the remaining enzymatic activity can also be determined using fluorogenic substrates. The apparent dissociation constants Kiapp (i.e. in the presence of substrate) are subsequently determined by adapting the enzyme rates to the general equation for reversible inhibitors (Morrison J F, Kinetics of the reversible inhibition of enzymecatalyzed reactions by tight-binding inhibitors, Biochim. Biophys. Acta 185, 269-286, 1969) using non-linear regression:
V1V0=1−{Et+It+Kiapp−[(Et+It+Kiapp)^2−4EtIt]^½}/2Et
V1 and V0 are the rates in the presence and absence, respectively, of the inhibitor, and Et and It are the tryptase and inhibitor concentrations, respectively.
The apparent dissociation constants determined for the compounds according to the invention are shown in Table A below, where the numbers of the compounds correspond to the numbers of the compounds in the examples.

Ki [nM] | Compound
2.6 | NCc1ccc(CNC(=O)N2CCN(C(=O)CN3CCC(=O)N(CC(=O)N4CCN(C(=O)NCc5ccc(CN)cc5)CC4)CCC3=O)CC2)cc1 [Compound 1, 1,5-bis-{2-[4-(4-Aminomethylbenzylaminocarbonyl)piperazin-1-yl]-2-oxoethyl}perhydro-1,5-diazocin-2,6-dione Dihydrochloride]
1.2 | NCc1ccc(CCC(=O)N2CCN(C(=O)CN3CCC(=O)N(CC(=O)N4CCN(C(=O)CCc5ccc(CN)cc5)CC4)CCC3=O)CC2)cc1 [Compound 2, 1,5-bis-{2-[4-(3-(4-aminomethylphenyl)proplonyl)piperazin-1-yl]-2-oxoethyl}perhydro-1,5-diazocin-2,6-dione Dihydrochloride]
3.3 | NCc1cccc(CCC(=O)N2CCN(C(=O)CN3CCC(=O)N(CC(=O)N4CCN(C(=O)CCc5cccc(CN)c5)CC4)CCC3=O)CC2)c1 [Compound 3, 1,5-bis-{2-[4-(3-(3-aminomethylphenyl)proplonyl)piperazin-1-yl]-2-oxoethyl}perhydro-1,5-diazocin-2,6-dione Dihydrochloride]
0.8 | NCc1ccc(OCC(=O)N2CCN(C(=O)CN3CCC(=O)N(CC(=O)N4CCN(C(=O)COc5ccc(CN)cc5)CC4)CCC3=O)CC2)cc1 [Compound 4, 1,5-bis-{2-[4-(2-(4-Aminomethylphenoxy)acetyl)perazin-1-yl]-2-oxoethyl}perhydro-1.5-diazocin-2,6-dione Dihydrochloride]
